{"source": "patent US20020119958A1", "about": "“Therapeutic agent for hyperlipidemia” (priority 2001, published 2002)", "key": {"HepG2 cells": {"test_system": "HepG2 cells", "assay": "Excretion of bile acid from HepG2 cells", "format": "cell-based, human", "conditions": "compound A 1, 10 μM, 24 h", "procedure": "The cultured HepG2 cells were plated in a 24-well culture dish at 1.5×10^5 cells/ml, 0.5 ml/well. Four days later, the medium was exchanged to a new one and ^14C-labeled cholesterol (18.5 kBq/well) was added, which was cultured for 24 h (bile acid in the cells was labeled thereby). After the culture, the medium was exchanged to a new one and compound A (final concentration 1, 10 μM) was added. After 24 hours of culture, the medium was recovered and the amount of bile acid excreted into the medium was measured to examine the influence of compound A on bile acid excretion. The amount of excreted bile acid was corrected based on the protein amount of the cell."}, "[1]": {"test_system": "LXR (liver X receptor) ligand binding domain (LXR-LBD)", "assay": "FRET assay with LXR-LBD instead of FXR-LBD (test for comparison)", "format": "biochemical", "conditions": "up to 50 μM", "procedure": "(§1) An Eu-labeled FXR ligand binding domain (FXR-LBD) and an APC-labeled coactivator SRC-1 were mixed to the final concentration of 10 nM and 100 nM, respectively, in a buffer [100 mM Hepes (pH 7.6), 0.125% CHAPS, 125 mM NaF] in the presence of ligand CDCA. Thereto were added various concentrations of compound A (1-50 μM), and the mixture was allowed to react at 4° C. for 12 h. After the reaction, it was exposed to an excitation light at 337 nm and the fluorescence at 665 nm and 620 nm was measured, based on which the fluorescence ratio of 665 nm/620 nm was taken as an FRET fluorescence intensity.\nAt a concentration of not less than 1 μM, compound A inhibited the binding between FXR-LBD and SRC-1 induced in the presence of CDCA (attenuation of FRET fluorescent intensity). For a test for comparison, a similar experiment was conducted using LXR (liver X receptor) ligand binding domain (LXR-LBD) instead of FXR-LBD."}, "I-BABP gene": {"test_system": "I-BABP gene", "assay": "Northern blot of I-BABP gene expression in hamster ileum", "format": "in vivo", "conditions": "14 days", "procedure": "(§2) Male Syrian Golden Hamsters (7 weeks old) were purchased from Japan SLC and preliminarily reared for 2 weeks under a high fat diet load (10% coconut oil, 0.12% cholesterol). After the preliminary rearing, the high fat diet was fed to the hamsters while administering compound A. The drug was prepared into a 0.5% methylcellulose suspension, and forcibly administered orally at 30 or 100 mg/kg/day for 14 consecutive days. At 4, 7, 11 and 14 days from the drug administration, blood was drawn from the orbital vein of the animal and total serum cholesterol value was measured. As a control, a drug non-administration group was prepared and treated similarly, which was followed by measurement of the serum total cholesterol value. At the final day of the test, the liver and the ileum were removed from the animals, from which the total RNA was prepared.\n(§3) The total RNA was prepared from animal tissues by AGPC method. The prepared total RNA was electrophoresed on an agarose gel containing 6% formaldehyde and transferred onto a nylon membrane by a capillary blotting method. This membrane was hybridized with ^32P-labeled hamster CYP7A or I-BABP probe in 50% formamide at 42° C. for 16 h and the amounts of CYP7A and I-BABP gene expressions were measured. The CYP7A and I-BABP probes were prepared by RT-PCR method from RNA derived from the liver and the ileum, respectively, of the hamsters."}, "[2]": {"test_system": "CYP7A gene expression in HepG2 cells", "assay": "CYP7A mRNA in HepG2 cells by quantitative RT-PCR", "format": "cell-based, human", "conditions": "CDCA 20 μM + compound A 10 μM, 37° C., 16 h", "procedure": "(§4) The cultured HepG2 cells were treated under the following three conditions at 37° C. for 16 h.\n(§5) 1) no treatment with CDCA, no treatment with compound A\n(§6) 2) treatment with CDCA (20 μM), no treatment with compound A\n3) treatment with CDCA (20 μM), treatment with compound A (10 μM)\nRNA was prepared from the cells after the treatment and the amount of CYP7A mRNA contained in the RNA was measured by quantitative RT-PCR. For the quantitative RT-PCR, TaqMan One Step Gold reverse transcriptase PCR kit of Applied Biosystems/PerkinElmer was used. For quantification, the following primers (i)-(iii) derived from human CYP7A gene sequence were used."}, "[3]": {"assay": "Serum total cholesterol in hamsters on high fat diet", "format": "in vivo, hamster", "conditions": "14 days, last day of the test", "procedure": "as §2\nThe blood was drawn from the orbital vein of the animals and centrifuged (3000 rpm, 15 min) to prepare the serum. The total cholesterol concentration of the serum was determined by the enzyme method."}, "FXR": {"target": "T1, FXR (Homo sapiens, UniProt Q96RI1)", "T1 construct": "expressed in transfected cells; host or cells: 293 or CV-1", "T1 sequence (Q96RI1 1-486)": "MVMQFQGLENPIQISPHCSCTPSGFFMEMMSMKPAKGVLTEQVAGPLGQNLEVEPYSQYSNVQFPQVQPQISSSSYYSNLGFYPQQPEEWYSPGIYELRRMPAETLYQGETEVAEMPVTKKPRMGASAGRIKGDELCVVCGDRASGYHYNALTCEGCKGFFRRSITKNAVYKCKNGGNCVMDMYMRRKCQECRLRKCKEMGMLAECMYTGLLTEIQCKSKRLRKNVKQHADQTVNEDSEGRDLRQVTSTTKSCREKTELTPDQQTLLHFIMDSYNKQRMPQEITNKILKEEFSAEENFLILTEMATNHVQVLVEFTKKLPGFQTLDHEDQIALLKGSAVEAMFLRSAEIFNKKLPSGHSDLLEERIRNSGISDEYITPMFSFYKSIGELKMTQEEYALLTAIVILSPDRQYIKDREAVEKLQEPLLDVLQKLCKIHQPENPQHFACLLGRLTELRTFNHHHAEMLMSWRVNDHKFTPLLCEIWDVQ", "assay": "CDCA-induced luciferase reporter gene transcription via FXR", "format": "cell-based", "conditions": "293 or CV-1 cells treated with CDCA; compound A 0.1-10 μM", "procedure": "(§7) A plasmid for compulsory expression of FXR, a luciferase reporter plasmid and a β-galactosidase expression plasmid for correction of gene transfer were introduced into cultured mammalian cells (293 or CV-1) by conventional methods. The cells after gene transfer were treated with CDCA and compound A. Cell lysates were prepared from the cells that underwent treatment with various concentrations of compound A (0.1-10 μM), and a luciferase activity (corrected based on β-galactosidase activity) in the cell lysate was expressed as an FXR dependent transcriptional activity. In the absence of a drug, the luciferase activity value upon activation with CDCA was taken as 100% and the value in the absence of a ligand was taken as 0%. For a test for comparison, a similar experiment was conducted using an LXR expression plasmid instead of the FXR expression plasmid."}, "[4]": {"test_system": "CYP7A protein in HepG2 cells", "assay": "CYP7A protein in HepG2 cells by Western blot", "format": "cell-based, human", "conditions": "CDCA 20 μM, compound A 0.03-10 μM, 16 h", "procedure": "as §4, §5, §6\n3) treatment with CDCA (20 μM), treatment with compound A (0.03, 0.1, 0.3, 1, 3, 10 μM)\nAfter the treatment, the cells were recovered and lysed in a lysis buffer (125 mM Tris HCl (pH 8.0), 2 mM CaCl2, 2% Triton X-100) to prepare a cell lysate. The cell lysate was fractionated by SDS-PAGE, and the protein was transferred onto a PVDF membrane. The CYP7A protein was detected by Western blot analysis using an anti CYP7A antibody and an HRP (horse-radish peroxidase) conjugated 2nd antibody."}, "[5]": {"assay": "Concentration in blood after single oral administration to hamster", "format": "in vivo", "conditions": "male, GS, single oral 100 mg/kg, serum", "procedure": "The compound A was forcibly given to hamster by single oral administration and measured for shifts in the concentration in blood. The test conditions were as follows. animal: male GS hamster (purchased from Japan SLC), 9 weeks old administration liquid: 20 mg/ml 0.5% methylcellulose suspension diet: not fasted dose: 100 mg/5 ml/kg (p.o.) administration: forcible single oral administration using oral sound blood sampling time: 5, 15, 30, 60, 180, 360 min after administration serum preparation: blood was drawn from the orbital vein and centrifuged using a Separapid tube (coagulation promoting spitz tube containing serum separating agent) to give serum.\nAn internal standard substance (CV-5386, 0.1 μg) was added to serum (0.1 ml) and admixed. Methanol (0.3 ml) was added and the mixture was stirred. The mixture was centrifuged at 10,000 rpm (FORCE-7 Denver Instrument Company) for 2 min and the resulting supernatant was subjected to centrifugal filtration using Centricut. The obtained filtrate was analyzed by LC-ESI-MS/MS."}, "LXR": {"test_system": "LXR", "assay": "Luciferase reporter gene transcription via LXR (test for comparison)", "format": "cell-based", "conditions": "up to the concentration of 10 μM", "procedure": "as §7"}, "[6]": {"test_system": "I-BABP gene expression in Caco-2 cells", "assay": "I-BABP mRNA in Caco-2 cells by Northern blot", "format": "cell-based, human", "conditions": "100 μM CDCA, compound A at 10 μM", "procedure": "The human colon carcinoma derived cell line, Caco-2, is a cell line differentiated like the small intestine and expresses the I-BABP gene. The I-BABP gene expression in Caco-2 cells is promoted by CDCA and an expression control system of I-BABP gene by FXR is considered to be also present in Caco-2 cells (Makishima, M. et al. Science 284, 1362-5 (1999)). Thus, an action on the I-BABP gene expression of compound A as an FXR antagonist was tested using Caco-2 cells.\nThe Caco-2 cells were cultured in the presence of 100 μM CDCA, and the expression of I-BABP gene was induced. Thereto was added compound A and changes in the I-BABP gene expression level were examined by measuring the amount of I-BABP mRNA by Northern blot analysis."}, "CYP7A gene": {"test_system": "CYP7A gene", "assay": "Northern blot of CYP7A gene expression in hamster liver", "format": "in vivo", "conditions": "14 days", "procedure": "as §2, §3"}, "[7]": {"target": "T2, FXR ligand binding domain (FXR-LBD) (Homo sapiens, UniProt Q96RI1)", "T2 construct": "GST", "T2 sequence (Q96RI1 262-486 limits assumed)": "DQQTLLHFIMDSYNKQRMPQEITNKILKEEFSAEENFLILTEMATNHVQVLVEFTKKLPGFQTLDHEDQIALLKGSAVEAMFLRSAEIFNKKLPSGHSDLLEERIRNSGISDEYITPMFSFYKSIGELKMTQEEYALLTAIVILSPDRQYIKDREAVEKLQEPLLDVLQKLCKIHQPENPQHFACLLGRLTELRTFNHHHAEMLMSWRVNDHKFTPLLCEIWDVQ", "assay": "FRET assay of CDCA-induced binding of FXR-LBD to coactivator SRC-1", "format": "biochemical", "conditions": "in the presence of CDCA; compound A 1-50 μM; 4° C., 12 h", "procedure": "as §1"}}}
{"compound": "CC(C)(C)c1cc(C(C)(C)C)c(O)c(NC(=O)c2ccccc2)c1O", "note": "[compound A, N-(3,5-di-tert-butyl-2,6-dihydroxyphenyl)benzamide]", "values": [{"measurement": "excretion of bile acid into the medium", "setting": "HepG2 cells", "value": "promoted the excretion of bile acid"}, {"measurement": "effect on FRET fluorescent intensity with LXR-LBD", "setting": "[1]", "value": "did not affect the fluorescent intensity"}, {"measurement": "decrease in mRNA level of the I-BABP gene in the ileum relative to the drug non-administration group", "setting": "I-BABP gene; 30 mg/kg/day p.o.", "value": 11, "unit": "%"}, {"measurement": "decrease in mRNA level of the I-BABP gene in the ileum relative to the drug non-administration group", "setting": "I-BABP gene; 100 mg/kg/day p.o.", "value": 16, "unit": "%"}, {"measurement": "amount of CYP7A mRNA (no CDCA = 100, 20 μM CDCA = 0)", "setting": "[2]", "value": 58}, {"measurement": "percent decrease in serum total cholesterol relative to the drug non-administration group", "setting": "[3]; 30 mg/kg/day p.o.", "value": 28, "unit": "%"}, {"measurement": "percent decrease in serum total cholesterol relative to the drug non-administration group", "setting": "[3]; 100 mg/kg/day p.o.", "value": 32, "unit": "%"}, {"measurement": "concentration at which FXR dependent transcription was repressed", "setting": "FXR", "value": "not less than 1 μM"}, {"measurement": "CYP7A protein (Western blot)", "setting": "[4]", "value": "Accumulation of CYP7A protein"}, {"measurement": "Cmax", "setting": "[5]", "value": 2010, "unit": "ng/mL"}, {"measurement": "Tmax", "setting": "[5]", "value": 6, "unit": "h"}, {"measurement": "effect on transcription activity dependent on LXR", "setting": "LXR", "value": "did not influence the transcription activity"}, {"measurement": "mRNA level of I-BABP (Northern blot)", "setting": "[6]", "value": "marked decrease"}, {"measurement": "increase in mRNA level of the CYP7A gene in the liver relative to the drug non-administration group", "setting": "CYP7A gene; 30 mg/kg/day p.o.", "value": 53, "unit": "%"}, {"measurement": "increase in mRNA level of the CYP7A gene in the liver relative to the drug non-administration group", "setting": "CYP7A gene; 100 mg/kg/day p.o.", "value": 27, "unit": "%"}, {"measurement": "concentration at which the binding between FXR-LBD and SRC-1 was inhibited (attenuation of FRET fluorescent intensity)", "setting": "[7]", "value": "not less than 1 μM"}]}
